PubChem BioAssay (NCI)
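Following 48 hours of exposure in 96-well plates, responses at five concentrations were used to interpolate endpoints linearly. Here, GI50 denotes the concentration required for 50% inhibition of growth. At the TGI there is no net growth.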

Experiments:
Assay in all cases: NCI tumour cell line growth inhibition, 48 h
[1] = test system: TK-10 renal
[2] = test system: SK-OV-3 ovarian
[3] = test system: OVCAR-8 ovarian
[4] = test system: COLO 205 colon
[5] = test system: SK-MEL-2 melanoma
[6] = test system: OVCAR-5 ovarian
[7] = test system: EKVX NSCLC
[8] = test system: MOLT-4 leukemia
[9] = test system: CAKI-1 renal
[10] = test system: HCT-116 colon

| SMILES | TGI [1] | TGI [2] | TGI [3] | TGI [4] | TGI [5] | TGI [6] | TGI [7] | TGI [8] | TGI [9] | GI50 [10] | TGI [10] | GI50 [1] | GI50 [2] | GI50 [3] | GI50 [4] | GI50 [5] | GI50 [6] | GI50 [8] | GI50 [9] | GI50 [7] |
| --- | --- | --- | --- | --- | --- | --- | --- | --- | --- | --- | --- | --- | --- | --- | --- | --- | --- | --- | --- | --- |
| Clc1cc(Cl)cc(C2SCc3nc4ccccc4n32)c1 (stereo unspecified) | 70.2 µM | 63.8 µM | 33.2 µM | 33.9 µM | 46.1 µM | 71.4 µM | 70.8 µM | 57.2 µM | 44.2 µM | – | – | – | – | – | – | – | – | – | – | – |
| O=C1C2c3[nH]c4ccccc4c3C3CCC(c4ccccc4)CC3C2C(=O)N1c1ccccc1 (stereo unspecified) | > 100 µM | > 100 µM | > 100 µM | > 100 µM | – | > 100 µM | > 100 µM | > 100 µM | – | – | – | – | – | – | – | – | – | – | – | – |
| CCCCCCCCCCCCCCCCCc1cc(Cl)nc(Cl)n1 | > 100 µM | > 100 µM | > 100 µM | – | > 100 µM | > 100 µM | > 100 µM | > 100 µM | – | – | – | – | – | – | – | – | – | – | – | – |
| COc1ccc2c(c1)O/C(=C\c1ccc([N+](=O)[O-])o1)C2=O | 9.49 µM | 59 µM | 7.46 µM | 3.12 µM | 4.01 µM | 5.78 µM | – | 8.26 µM | 2.12 µM | 0.246 µM | 0.747 µM | 2.13 µM | 4.75 µM | 1.41 µM | 1.18 µM | 2.13 µM | 2.27 µM | 2.13 µM | 0.452 µM | – |
| CCCCN1C(=O)C2c3[nH]c4ccccc4c3C3CCCCC3C2C1=O (mixture of isomers) | 33.9 µM | 47.7 µM | 58.8 µM | > 100 µM | – | – | 66.8 µM | 19.4 µM | 20.4 µM | – | 23.6 µM | – | – | – | – | – | – | – | – | – |
| CCN(CC)c1ccc(CNc2cc(C)nc3ccc(OC)cc23)cc1 | 4.64 µM | 22 µM | 15.9 µM | 2.76 µM | 3.56 µM | 18.6 µM | 15.3 µM | 9.69 µM | 10.5 µM | 2.34 µM | 7.76 µM | 1.92 µM | 10.3 µM | 4.05 µM | 1.31 µM | 1.83 µM | 5.37 µM | 3.16 µM | 1.89 µM | 3.14 µM |
| O=C(NCCN1CCOCC1)Nc1nc2ccc(Sc3nnc4ccc(-c5ccc(F)cc5)nn34)cc2s1 | > 100 µM | > 100 µM | > 100 µM | > 33.3 µM | > 91.2 µM | > 100 µM | – | > 100 µM | > 100 µM | 6.88 µM | > 100 µM | > 100 µM | > 100 µM | > 100 µM | 4.53 µM | > 44.3 µM | > 39 µM | > 100 µM | – | – |
| CC[C@]12C=CCN3CC[C@@]4(c5ccc(OC)cc5N(C)[C@H]4[C@@](O)(C(=O)OC)[C@@H]1OC(=O)CCCC[P+](c1ccccc1)(c1ccccc1)c1ccccc1)[C@@H]32 | 9.66 µM | 5.9 µM | 9.92 µM | 0.586 µM | 1.45 µM | 12.5 µM | 15.8 µM | 5.29 µM | 13.7 µM | 0.777 µM | 12 µM | 2.79 µM | 0.725 µM | 2.23 µM | 0.242 µM | 0.478 µM | 1.82 µM | 1.36 µM | 3.61 µM | 0.907 µM |
| COC1=CC(=O)c2c(O)c3c(c(O)c2C1=O)OC1(Oc2c(cc4cc(C)oc(=O)c4c2O)CC1O)C3O (stereo unspecified) | > 100 µM | > 100 µM | > 100 µM | > 100 µM | > 100 µM | > 100 µM | 57 µM | > 100 µM | 53.9 µM | – | > 100 µM | – | – | – | – | – | – | – | – | – |
| CCCCCCCCCCCCCCCCSS(C)(=O)=O | 52.9 µM | > 100 µM | 58.7 µM | 47.4 µM | > 42.4 µM | > 100 µM | > 100 µM | 6.77 µM | 26.1 µM | – | 43.5 µM | – | – | – | – | – | – | – | – | – |
| COc1ccccc1CN=C1NC(=O)/C(=C/c2ccc3ncccc3c2)S1 | > 25 µM | > 19.2 µM | > 25 µM | > 24.1 µM | > 25 µM | > 25 µM | – | > 19 µM | > 25 µM | 3.1 µM | > 25 µM | 7.97 µM | 6.08 µM | 8.17 µM | 5.92 µM | 10.4 µM | 16.3 µM | 8.17 µM | 6.84 µM | – |
| O=C1/C(=N/N=C(c2ccccc2)c2ccccc2)c2ccccc2-c2ccccc21 | > 100 µM | > 100 µM | > 100 µM | > 100 µM | > 100 µM | > 100 µM | > 100 µM | > 100 µM | > 100 µM | – | > 100 µM | – | – | – | – | – | – | – | – | – |
| N#CC1=C(c2ccccc2)NN(Cc2ccccc2)C(c2ccc(Cl)cc2)CC1=O (stereo unspecified) | > 100 µM | – | – | > 100 µM | > 100 µM | > 100 µM | – | > 100 µM | 76.7 µM | – | 48.5 µM | – | – | – | – | – | – | – | – | – |
| O=c1/c(=C/c2ccccc2O)sc2nc3ccccc3n12 | > 100 µM | – | > 100 µM | – | > 100 µM | > 100 µM | 82 µM | 43.7 µM | > 100 µM | – | > 100 µM | – | – | – | – | – | – | – | – | – |
| C=CCNC(=O)ON1C(=O)CCC1=O | > 100 µM | > 100 µM | > 100 µM | > 100 µM | > 100 µM | > 100 µM | > 100 µM | > 100 µM | – | – | > 100 µM | – | – | – | – | – | – | – | – | – |
| CN(C(=N)c1ccccc1)c1ccccc1 | > 100 µM | > 100 µM | > 100 µM | > 100 µM | > 100 µM | – | > 100 µM | > 100 µM | – | – | > 100 µM | – | – | – | – | – | – | – | – | – |
| CC(=O)CC(=O)ON(C)C(C)=O | > 100 µM | > 100 µM | > 100 µM | > 100 µM | – | > 100 µM | – | > 100 µM | > 100 µM | – | > 100 µM | – | – | – | – | – | – | – | – | – |
| Nc1nc(=O)c2[nH]cnc2n1O | > 100 µM | > 100 µM | > 100 µM | > 100 µM | > 100 µM | > 100 µM | > 100 µM | > 100 µM | – | – | > 100 µM | – | – | – | – | – | – | – | – | – |
| CCOC(=O)NC(=O)c1cn(CC(=O)NCC(=O)NCC(=O)N2CCN(CCn3c(C)nc(C(N)=O)c3N)CC2)c(=O)[nH]c1=O | > 100 µM | > 100 µM | > 100 µM | > 100 µM | > 100 µM | – | – | > 100 µM | > 100 µM | – | > 100 µM | – | – | – | – | – | – | – | – | – |
